Experimental data from paper PMC10100342, “Thiamyxins: Structure and Biosynthesis of Myxobacterial RNA‐Virus Inhibitors” (Angewandte Chemie (International Ed. in English), 2022).
In brackets after ≈: the same amount, converted by molar mass. Several values for one entry are separate records, joined by “and”; a condition that tells them apart may be missing. Identical values can stand only once. Like-named read-outs stand apart in the source and are kept apart here.

Key:
DENV-R2A [1] = test: microbe, parasite or virus in culture; conditions: Dengue virus, Huh-7, 48 h, read-out: IC50 against DENV-R2A
ZIKV-H/PF/2013 = test: microbe, parasite or virus in culture; format: cell-based; conditions: Zika virus, Huh-7, 48 h, read-out: IC50 against ZIKV-H/PF/2013
Mucor hiemalis DSM-2656 = test: Antimicrobial activity (MIC); conditions: DSM2656, read-out: MIC Mucor hiemalis DSM-2656
[2] = system: Candida. albicans DSM-1665; test: Antimicrobial activity (MIC); conditions: DSM1665, read-out: MIC Candida. albicans DSM-1665
[3] = system: Micrococcus luteus DSM-1790; test: Antimicrobial activity (MIC); conditions: DSM1790, read-out: MIC Micrococcus luteus DSM-1790
[4] = Cell viability (CellTiter Glo) of Huh-7 cells in parallel to ZIKV antiviral test; conditions: human
in vitro [5] = conditions: human
hCoV-229E-luc = test: organism not typed; format: cell-based, alphacoronavirus HCoV-229E
Bacillus subtilis DSM-10 = test: Antimicrobial activity (MIC); conditions: DSM10, read-out: MIC Bacillus subtilis DSM-10
DENV-R2A [6] = conditions: CC50 Huh-7 versus IC50 DENV-R2A
in vitro [7] = conditions: human; remark: listed apart in the source
[8] = system: Candida albicans, Mucor hiemalis, Bacillus subtilis and Micrococcus luteus; test: Antimicrobial test panel (whole-panel statements); conditions: in the tested concentrations
Description: All thiamyxins except congener A, which was only produced in low amounts, were tested against two
Gram-positive and two fungal pathogens.

[9] = read-out: IC50 against hCoV-229E-luc, Huh-7.5/Fluc cells, 48 h, 33 °C, Renilla luciferase
[10] = Huh-7.5/Fluc cells, 48 h, 33 °C, Renilla luciferase, read-out: IC50 against hCoV-229E-luc

Row | Compound | IC50 (DENV-R2A [1]) [µM] | IC50 (ZIKV-H/PF/2013) [µM] | MIC (Mucor hiemalis DSM-2656) [µg/mL] | MIC [2] [µg/mL] | MIC [3] [µg/mL] | CC50 (in vitro [5]) [µM] | IC50 (hCoV-229E-luc; [9]) [µM] | MIC (Bacillus subtilis DSM-10) [µg/mL] | CC50 (Huh-7.5 Fluc infected) [µM] | IC50 (hCoV-229E-luc; [10]) [µM] | other results
1 | C=C(NC(=O)C1(C)CSC(c2csc(C3(C)CSC(C(NC(=O)C(C)NC(=O)C(=CC(C)C)CO)C(C)CC)=N3)n2)=N1)C(=O)NC(COC)C(=O)N(C)C(c1nc(C(=O)O)cs1)C(C)C (stereo not drawn) [Thiamyxin C] | 14.6 | > 15 | 64 (≈ 65.6 µM) | > 64 | 32 (≈ 32.8 µM) | > 10 | > 10 | 64 (≈ 65.6 µM) | – | – | CC50 at 48 h [4]: > 50 µM; IC50 (hCoV-229E-luc; read-out: IC50 against hCoV-229E-luc, Huh-7.5/Fluc cells, 48 h, 33 °C, Renilla luciferase, listed as KH_Mx152_976): 20.5 µM; IC50 (hCoV-229E-luc; read-out: IC50 against hCoV-229E-luc, Huh-7.5/Fluc cells, 48 h, 33 °C, Renilla luciferase, listed as thiamyxin C): ~20 µM and ~20.5 µM
2 | Chondrosarid B | – | – | – | – | – | – | – | – | > 10 | 4.19 | –
3 | C=C1NC(=O)C2(C)CSC(=N2)c2csc(n2)C2(C)CSC(=N2)C(C(C)CC)NC(=O)C(C)NC(=O)C(=CC(C)C)COC(=O)c2csc(n2)C(C(C)C)N(C)C(=O)C(COC)NC1=O (stereo not drawn) [Thiamyxin B] | 0.56 | 1.07 | > 64 | 64 (≈ 66.8 µM) | > 64 | – | 2.39 | > 64 | – | – | difference between IC50 and CC50, DENV-R2A assay (DENV-R2A [6]): fourfold; CC50 (Huh-7.5 Fluc infected; human): > 10 µM; CC50 at 48 h [4]: 2.25 µM; CC50 at 48 h (in vitro [7]): 2.25 µM
4 | COC(=O)/C=C(\OC)[C@H](C)[C@H](/C=C/c1csc(CCCCCCCC(C)C)n1)OC [Fulvuthiacene A] | – | – | – | – | – | – | – | – | > 10 | 1.95 | –
5 | C=C(NC(=O)C1(C)CSC(c2csc(C3(C)CSC(C(NC(=O)C(C)NC(=O)C(=CC(C)C)CO)C(C)CC)=N3)n2)=N1)C(=O)NC(COC)C(=O)N(C)C(c1nc(C(=O)OCC(O)CO)cs1)C(C)C (stereo not drawn) [Thiamyxin D] | – | – | > 64 | > 64 | > 64 | > 10 | > 10 | > 64 | – | – | IC50 (hCoV-229E-luc; read-out: IC50 against hCoV-229E-luc, Huh-7.5/Fluc cells, 48 h, 33 °C, Renilla luciferase, listed as KH_Mx152_1050): 23.1 µM; IC50 (hCoV-229E-luc; read-out: IC50 against hCoV-229E-luc, Huh-7.5/Fluc cells, 48 h, 33 °C, Renilla luciferase, listed as thiamyxin D): ~20 µM and ~23.1 µM; effect on the antimicrobial test panel in words [8]: did not show effects
6 | NC(=O)c1ncn([C@@H]2O[C@H](CO)[C@@H](O)[C@H]2O)n1 [ribavirin, reference compound] | 2.3 | 2.5 | – | – | – | – | – | – | – | – | –
7 | COC(=O)/C=C(\OC)[C@H](C)[C@H](/C=C/c1csc(CCCCCC(C)C)n1)OC [Fulvuthiacene B] | – | – | – | – | – | – | – | – | > 10 | 0.97 | –
8 | C=C1NC(=O)C2(C)CSC(=N2)c2csc(n2)C2(C)CSC(=N2)C(C(C)CC)NC(=O)C(C)NC(=O)C(=CC(C)C)COC(=O)c2csc(n2)C(C(C)C)N(C)C(=O)C(COC)NC1=O (stereo not drawn) [Thiamyxin A] | – | – | – | – | – | > 10 | 2.47 | – | – | – | IC50 (hCoV-229E-luc; Huh7.5, 48 h, read-out: IC50 against hCoV-229E-luc, Huh-7.5/Fluc cells, 48 h, 33 °C, Renilla luciferase): 2.49 µM
